Results: US9789211B2, “Methods and compositions for positron emission tomography myocardial perfusion imaging” (UNIVERSITY OF SOUTHERN CALIFORNIA, priority 2012, dated 2017)

Tests used:
[1] = test system: H345 lung carcinoma cells; assay: mitochondrial membrane potential-dependent cellular uptake with CCCP treatment; format: cell-based; settings: H345 cells incubated 10 min with CCCP before adding tracers
Method: Uptake kinetics of ^64Cu-Sar-TPP and 3H-TPP (standard) may be examined in H345 lung carcinoma cells. In brief, H345 cells will be harvested by trypsinization and washed twice with cold PBS buffer. Cells are counted and re-suspended in loading buffer at a concentration of 2×10^6 cells/mL. The cell suspension (0.5 mL) may be transferred to Eppendorf tubes and incubated at 37° C. for 60 min. An equal volume of loading solution containing 0.5-5 nM ^64Cu-Sar-TPP and 3H-TPP will be added. The sample may be centrifuged (800 rpm, 5 min) to terminate the uptake. Aliquots of the supernatant are then obtained and the remaining solution is aspirated. The radioactivity of the pellet and supernatant is counted together with standard solution ( 1/1,000) in a gamma counter. After completion of gamma counting, scintillation counting are performed after the complete decay of ^64Cu (two weeks). Cell uptake values of ^64Cu-Sar-TPP in H345 cells may be determined over incubation periods of 0.5, 1, 2, 4, and 24 h. […] The mitochondrial membrane potential-dependent cellular uptake of ^64Cu-Sar-TPP will be further assessed using the H345 cells treated with carbonyl cyanide m-chlorophenylhydrazone (CCCP). […] Only the ^64Cu-Sar-TPP probes that are sensitive towards CCCP will be evaluated in future investigation because this experiment supports the tracer uptakes are depend on mitochondria potential as we proposed above.

[2] = cited from earlier work
[3] = cited from earlier work; remark: listed apart in the source

For N#CC(C#N)=NNc1cccc(Cl)c1 [CCCP, carbonyl cyanide m-chlorophenylhydrazone], the “cell-associated activity of ^64Cu-Sar-TPP and 3H-TPP” value [1] was “dose dependent decrease”.

In the case of [C-]#[N+]CC(C)(C)OC.[C-]#[N+]CC(C)(C)OC.[C-]#[N+]CC(C)(C)OC.[C-]#[N+]CC(C)(C)OC.[C-]#[N+]CC(C)(C)OC.[C-]#[N+]CC(C)(C)OC.[Tc] [^99mTc-sestamibi], the “log P” value [2] is given as 1.1.

For “^64/62Cu-pyruvaldehyde-bis(N4-methyl-thiosemicarbazone) [[^64/62Cu]-PTSM]”, the “clearance from the blood pool” value ([3]; association with serum albumin) is listed as “clears slowly” and the liver uptake ([3]; spillover into the inferior wall of myocardial) is listed as “high liver uptake”.
